Source: US20040265847A1, “Method for treating Alzheimer's disease” (priority 1991, published 2004)

Columns and labels:
[1] = target: T1, partially purified human serum APP (Homo sapiens, UniProt P05067); assay: partially purified serum APP binding to heparin-Sepharose
T1 construct: from tissue; host or cells: human serum
Experimental: 40-60 ml of whole blood was allowed to clot for 3 hours in plain tubes at 20° C. The clotted blood was then incubated for 16 hours at 4° C., whereupon it was centrifuged at 1500 g for 15 minutes and the supernatant removed. The serum was further centrifuged at 1500 g for 15 minutes and the cell-free supernatant removed.
APP binding to heparin-Sepharose was also studied using partially purified APP preparations derived from human brain membranes (according to the method of Moir et al, 1992) or from human serum. Washed brain membrane extract or human serum was adjusted to a NaCl concentration of 350 mM and applied to a Q-Sepharose column (5 cm×5 cm), washed with 350 mM NaCl, 50 mM Tris-Hcl, pH 7.4 (250 ml [×2 for brain membrane extract]) and eluted with 1 M NaCl 50 mM Tris-HCl, pH 7.4 (200 ml at 5 ml/min). This procedure causes an 80-fold enrichment of APP in the peak protein fractions, which are then pooled (Moir et al, 1992). The eluate (20 ml) was desalted into 25 mM Tris, pH 7.4 (30 ml) using a G25 Sephadex column (2.6 cm×40 cm). 15 ml of the product was adjusted to 50 μM Zn^2+ with 2 mM ZnCl2, 50 mM Tris-Hcl, pH 7.4 and the other 15 ml was adjusted to the same volume with 50 mM Tris-HCl, pH 7.4. 10 ml of the deslated Q-Sepharose eluate, containing 6.7 mg protein, was applied to heparin-Sepharose (1.6 cm×5 cm) at 0.35 ml/min, washed with 100 ml of loading buffer, and eluted by a 0 to 1500 mM NaCl gradient (±50 μM Zn^2+) in 52.5 ml at a flow rate of 0.35 ml/min. […] The immunoreactive staining of the 130 kDa APP species seen on the blots was quantified by computer-assisted image capture reflectance densitometry (Bush et al., 1992). The 130 kDa reflectance signals on the blots were expressed as the ratio of the signal generated in one sample lane related to the 130 kDa APP reflectance reading of a sample of starting material present on every individual filter as an internal standard.

[2] = test system: human brain 130/110 kDa APP; assay: ^65Zn binding to human brain 130/110 kDa APP (time course, competition, Scatchard)
From the text: FIG. 4 is a graphical representation showing a time course analysis of ^65Zn binding to human brain 130/110 kDa APP. Amyloid protein precursor (APP) was purified according to the method in Moir et al. (1992). The preparation of purified 130 and 110 kDa APP was derived from human brain membrane extracts and contained the full-length precursor with carboxyl terminus intact but lacked the 17 residue signal peptide. The 130 and 110 kDa proteins were apparent in equal ratios on silver staining following polyacrylamide gel electrophoresis and were the only bands visible. The identity of these two proteins was confirmed by Western blots with monoclonal antibody 22C11 (which recognises an amino terminal epitope on APP), and by amino terminal sequencing. The protein concentration of the APP preparation was determined by amino acid analysis. Aliquots of APP (90 ng, =1.1 pmole, assuming the average amino acid formula weight of APP is =80 kDa) were incubated at 20° C. for the times indicated. Incubations (50 μl) were performed in 150 mM NaCl, 50 mM Tris-Hcl, pH 7.4 in the presence of 10^6 cpm of ^65Zn (175 nM). The incubation solution was then applied to a 1.1 ml bed volume Sephadex G25 (Pharmacia, Uppsala, Sweden) column pre-equilibrated with 150 mM NaCl, 50 mM Tris-HCl, pH 7.4 and allowed to settle before being desalted with 645 μl of the Equilibration buffer. […] The desalted protein was collected directly into counting tubes containing 10 ml aqueous counting scintillant. Less than two minutes was required to complete the desalting. The amount of ^65Zn bound to desalted APP was determined by counting the collected sample in a beta-counter set to the broadest channel. Counting was determined to be 51% efficient. The values shown are means±SD of n≧3 readings.
FIG. 5 is a graphical representation showing a competition analysis of ^65Zn binding to human brain 130/110 kDa APP. Aliquots of APP were incubated for 30 minutes with ^65Zn as in FIG. 4. The binding of the labelled Zn^2+ to APP was subjected to competition with unlabelled Zn^2+ in the form of the chloride salt. Data shown indicate the competition curves generated at pH 6.4 and 7.4. The binding of Zn^2+ to APP deteriorated at the lower pH (=45% of Bmax, pH 7.4). The values are means±SEM of n≧3 readings. The curves illustrated are typical of three experiments.
FIG. 6 is a graphical representation depicting a Scatchard analysis of ^65Zn binding to human brain 130/110 kDa APP.
Binding analysis was performed as follows: Aliquots of APP (90 ng, =1.1 pmole, assuming the average amino acid formula mass of APP is =80 kDa) were incubated at 20° C. Incubations (50 μl) were performed in 150 mM NaCl, 50 mM Tris-HCl, pH 7.4 in the presence of 10^6 CPM of ^65Zn (175 nM). The incubation solution was then applied to a 1.1 ml bed volume Sephadex G25 (Pharmacia, Uppsala, Sweden) column pre-equilibrated with 150 mM NaCl, 50 mM Tris-HCl, pH 7.4 and allowed to settle before being desalted with 645 μl of the equilibration buffer. […] The deslated protein was collected directly into counting tubes containing 10 ml aqueous counting scintillant (ACSII, Amersham). Less than two minutes was required to complete the desalting. The amount of ^65Zn bound to desalted APP was determined by counting the collected sample in a beta-counter set to the broadest channel. Counting was determined to be 51% efficient. The binding of the labelled Zn^2+ to APP was subjected to competition with unlabelled Zn^2+ and other metal chloride salts.

T1 sequence (P05067 18-687 limits assumed): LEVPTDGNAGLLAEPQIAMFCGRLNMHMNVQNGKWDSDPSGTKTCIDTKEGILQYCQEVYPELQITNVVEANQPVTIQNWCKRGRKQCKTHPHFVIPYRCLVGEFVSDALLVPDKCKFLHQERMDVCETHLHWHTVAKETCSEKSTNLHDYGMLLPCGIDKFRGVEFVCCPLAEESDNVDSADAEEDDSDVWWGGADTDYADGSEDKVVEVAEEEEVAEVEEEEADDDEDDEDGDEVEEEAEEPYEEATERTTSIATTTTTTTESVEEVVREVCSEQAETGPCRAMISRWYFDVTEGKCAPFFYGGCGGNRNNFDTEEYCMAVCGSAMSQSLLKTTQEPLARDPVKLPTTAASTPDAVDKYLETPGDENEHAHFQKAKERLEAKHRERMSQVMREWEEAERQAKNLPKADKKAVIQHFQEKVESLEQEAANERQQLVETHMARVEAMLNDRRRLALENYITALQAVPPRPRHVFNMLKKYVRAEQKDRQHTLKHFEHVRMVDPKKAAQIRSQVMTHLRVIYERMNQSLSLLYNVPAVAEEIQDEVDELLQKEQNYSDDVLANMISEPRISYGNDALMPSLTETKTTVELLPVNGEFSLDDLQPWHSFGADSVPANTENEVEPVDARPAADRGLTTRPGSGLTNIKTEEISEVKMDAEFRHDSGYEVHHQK

[Cl-].[Cl-].[Zn+2] [Zn^2+, ZnCl2]
effect on proportion of higher-affinity binding of serum-derived APP [1]: did not increase the proportion of higher-affinity binding | increase in APP recovered from the NaCl elution ([1]; 50 μm Zn^2+): 10% | increase in amount of protein recovered ([1]; 50 μm Zn^2+, protein assay): 12% | Zn bound to APP, % of Bmax ([2]; at 1 minute): 30% | Zn bound to APP, % of Bmax ([2]; at 5 minutes): 30% | binding of Zn^2+ to APP at the lower pH, % of Bmax at pH 7.4 ([2]; pH 6.4): 45% | ^65Zn label competed off APP (of Bmax) ([2]; unlabelled metal ion at 20 μM): > 97%
